Data as given in patent US8987445B2, “Sulfonamide compounds having TRPM8 antagonistic activity” (Mitsubishi Tanabe Pharma Corporation, priority 2011, dated 2015).

The molecules below were run against human TRPM8 (Homo sapiens (Human), UniProt Q7Z2W7) (assay: TRPM8 inhibition assay (menthol-induced calcium influx, FDSS)). Conditions: HEK293 cells stably expressing human TRPM8; 100 μM menthol; Fura-2AM Ca2+ signal; read-out: TRPM8 Blocking Test (IC50).
Type: cell-based
Protocol: The functional activity of compounds was determined by measuring changes in intracellular calcium concentration using a Ca^2+ sensitive fluorescent dye. The changes in fluorescent signal were monitored by the cell imaging technology by Hamamatsu Photonics's Functional Drug Screening System (FDSS). […] HEK293 cells stably expressing human TRPM8 were grown in flasks. On assay day, the culture medium was removed, and cells were washed with phosphate-buffered saline (PBS) and harvested with PBS containing 2 mM ethylenediaminetetraacetic acid, disodium salt (EDTA, 2Na). […] Subsequently, suspended 20,000 to 50,000 cells per well were incubated with test compound (at varying concentrations) in each well for 20 min at 37° C. Changes in intracellular Ca^2+ evoked by 100 μM menthol were measured for 2 min using FDSS. IC50 vales were determined from four-point concentration-response studies. Curves were generated using the average of quadruplicate wells for each data point.

Sequence of human TRPM8 (Q7Z2W7 whole entry): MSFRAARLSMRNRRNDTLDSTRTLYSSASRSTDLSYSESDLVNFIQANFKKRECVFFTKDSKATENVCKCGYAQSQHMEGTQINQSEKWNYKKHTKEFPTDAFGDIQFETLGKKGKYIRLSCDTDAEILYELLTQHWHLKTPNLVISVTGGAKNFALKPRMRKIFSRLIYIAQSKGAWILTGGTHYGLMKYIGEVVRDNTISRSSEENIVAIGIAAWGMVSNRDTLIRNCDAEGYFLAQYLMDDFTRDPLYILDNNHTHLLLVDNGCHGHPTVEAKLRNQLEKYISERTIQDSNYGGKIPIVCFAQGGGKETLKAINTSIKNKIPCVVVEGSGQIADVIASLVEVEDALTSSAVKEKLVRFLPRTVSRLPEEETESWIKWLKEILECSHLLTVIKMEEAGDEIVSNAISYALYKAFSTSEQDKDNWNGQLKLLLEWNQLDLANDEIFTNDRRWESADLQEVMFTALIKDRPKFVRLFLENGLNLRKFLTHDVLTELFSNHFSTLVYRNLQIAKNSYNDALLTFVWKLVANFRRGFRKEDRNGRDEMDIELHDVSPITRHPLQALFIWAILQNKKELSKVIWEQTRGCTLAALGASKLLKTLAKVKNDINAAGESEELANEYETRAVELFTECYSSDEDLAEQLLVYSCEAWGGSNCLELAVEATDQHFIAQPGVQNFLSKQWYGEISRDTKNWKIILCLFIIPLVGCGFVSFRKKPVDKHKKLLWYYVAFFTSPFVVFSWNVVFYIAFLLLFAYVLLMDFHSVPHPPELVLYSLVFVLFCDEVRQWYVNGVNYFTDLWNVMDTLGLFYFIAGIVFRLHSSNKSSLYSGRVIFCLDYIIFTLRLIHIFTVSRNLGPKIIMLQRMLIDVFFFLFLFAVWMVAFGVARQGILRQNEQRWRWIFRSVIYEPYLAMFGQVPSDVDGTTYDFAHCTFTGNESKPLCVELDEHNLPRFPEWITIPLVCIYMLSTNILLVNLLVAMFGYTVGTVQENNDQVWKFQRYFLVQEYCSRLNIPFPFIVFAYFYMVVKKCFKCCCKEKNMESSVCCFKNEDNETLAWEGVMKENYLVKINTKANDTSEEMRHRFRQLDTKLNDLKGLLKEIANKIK

In order of rising IC50:
1. O=C(O)c1ccc(S(=O)(=O)N(Cc2ccc(OC(F)(F)F)cc2)c2ncc3ccccc3c2C2CC2)cc1 [Example 104, 4-({(4-cyclopropylisoquinolin-3-yl)[4-(trifluoromethoxy)benzyl]amino}sulfonyl)benzoic acid]  0.9 nM
2. Cc1c(N(Cc2ccc3c(c2)CCC3(C)C)S(=O)(=O)c2ccc(C(=O)O)cc2)ncc2ccccc12 [Example 61]  1.3 nM
3. Cc1c(N(Cc2ccc(C(C)(C)C)cc2)S(=O)(=O)c2ccc(C(=O)O)cc2)ncc2ccccc12 [Example 23]  1.8 nM
4. Cc1c(N(Cc2ccc(CC3CC3)cc2)S(=O)(=O)c2ccc(C(=O)O)cc2)ncc2ccccc12 [Example 24]  4.6 nM
5. CCOC(C)(c1ccc(CN(c2ncc3ccccc3c2C)S(=O)(=O)c2ccc(C(=O)O)cc2)cc1)C(F)(F)F (stereo not shown) [Example 14, 4-{[[4-(1-ethoxy-2,2,2-trifluoro-1-methylethyl)benzyl](4-methylisoquinolin-3-yl)amino]sulfonyl}benzoic acid]  4.7 nM
6. Cc1c(N(Cc2ccc3c(c2)CCCC3)S(=O)(=O)c2ccc(C(=O)O)cc2)ncc2ccccc12 [Example 56]  4.7 nM
7. COC(C)(c1ccc(CN(c2ncc3ccccc3c2C)S(=O)(=O)c2ccc(C(=O)O)cc2)cc1)C(F)(F)F (stereo not shown) [Example 96]  4.7 nM
8. Cc1cc2ccccc2nc1N(Cc1ccc(OC(F)(F)F)cc1)S(=O)(=O)c1ccc(C(=O)O)cc1 [Example 17]  5 nM
9. CC(C)c1nc(N(Cc2ccc(OC(F)(F)F)cc2)S(=O)(=O)c2ccc(C(=O)O)cc2)c(C(F)(F)F)c2ccccc12 [Example 110, 4-({[1-isopropyl-4-(trifluoromethyl)isoquinolin-3-yl][4-(trifluoromethoxy)benzyl]amino}sulfonyl)benzoic acid]  7.4 nM
10. Cc1c(N(Cc2ccc3c(c2)CCC3)S(=O)(=O)c2ccc(C(=O)O)cc2)ncc2ccccc12 [Example 60]  8.1 nM
11. Cc1c(N(Cc2ccc3c(c2)CC(C)(C)C3)S(=O)(=O)c2ccc(C(=O)O)cc2)ncc2ccccc12 [Example 62]  8.3 nM
12. Cc1c(N(Cc2ccc3ccccc3c2)S(=O)(=O)c2ccc(C(=O)O)cc2)ncc2ccccc12 [Example 32]  8.6 nM
13. Cc1c(N(Cc2ccc3c(c2)COC3(C)C)S(=O)(=O)c2ccc(C(=O)O)cc2)ncc2ccccc12 [Example 83]  10 nM
14. Cc1c(N(Cc2ccc(-c3ccccc3F)cc2)S(=O)(=O)c2ccc(C(=O)O)cc2)ncc2ccccc12 [Example 88]  10 nM
15. CCCc1nc(N(Cc2ccc(OC(F)(F)F)cc2)S(=O)(=O)c2ccc(C(=O)O)cc2)c(C)c2ccccc12 [Example 97, 4-({(4-methyl-1-propylisoquinolin-3-yl)[4-(trifluoromethoxy)benzyl]amino}sulfonyl)benzoic acid]  11 nM
16. Cc1cc2ccccc2nc1N(Cc1ccc(F)c(C(F)(F)F)c1)S(=O)(=O)c1ccc(C(=O)O)cc1 [Example 20]  12 nM
17. Cc1c(N(Cc2ccc(C3CC3)cc2)S(=O)(=O)c2ccc(C(=O)O)cc2)ncc2ccccc12 [Example 41]  12 nM
18. CONC(=O)c1ccc(S(=O)(=O)N(Cc2ccc(OC(F)(F)F)cc2)c2ncc3ccccc3c2C)cc1 [Example 124, N-methoxy-4-({(4-methylisoquinolin-3-yl)[4-(trifluoromethoxy)benzyl]amino}sulfonyl)benzamide]  13 nM
19. CC(=O)c1c(N(Cc2ccc(OC(F)(F)F)cc2)S(=O)(=O)c2ccc(C(=O)O)cc2)ncc2ccccc12 [Example 112, 4-({(4-acetylisoquinolin-3-yl)[4-(trifluoromethoxy)benzyl]amino}sulfonyl)benzoic acid]  14 nM
20. Cc1c(N(Cc2ccc(-c3cccc(F)c3)cc2)S(=O)(=O)c2ccc(C(=O)O)cc2)ncc2ccccc12 [Example 89]  15 nM
21. Cc1c(N(Cc2ccc3c(Cl)c[nH]c3c2)S(=O)(=O)c2ccc(C(=O)O)cc2)ncc2ccccc12 [Example 121, 4-{[[(3-chloro-1H-indol-6-yl)methyl](4-methylisoquinolin-3-yl)amino]sulfonyl}benzoic acid]  15 nM
22. Cc1c(N(Cc2ccc(Oc3ccccc3)cc2)S(=O)(=O)c2ccc(C(=O)O)cc2)ncc2ccccc12 [Example 28]  16 nM
23. Cc1c(N(Cc2ccc(OC3CCCC3)cc2)S(=O)(=O)c2ccc(C(=O)O)cc2)ncc2ccccc12 [Example 46]  17 nM
24. Cc1c(N(Cc2ccc3c(c2)CC(C)(C)O3)S(=O)(=O)c2ccc(C(=O)O)cc2)ncc2ccccc12 [Example 80]  18 nM
25. Cc1c(N(Cc2ccc(OC(F)(F)F)cc2)S(=O)(=O)c2ccc(C(=O)O)cc2)nc(OC(C)C)c2ccccc12 [Example 100, 4-({(1-isopropoxy-4-methylisoquinolin-3-yl)[4-(trifluoromethoxy)benzyl]amino}sulfonyl)benzoic acid]  21 nM
26. Cc1c(N(Cc2ccc(OC(F)(F)F)cc2)S(=O)(=O)c2ccc(C(=O)O)cc2)nc(C(F)(F)F)c2ccccc12 [Example 108, 4-({[4-methyl-1-(trifluoromethyl)isoquinolin-3-yl][4-(trifluoromethoxy)benzyl]amino}sulfonyl)benzoic acid]  21 nM
27. Cc1c(N(Cc2ccc(OC(F)(F)F)cc2)S(=O)(=O)c2ccc(C(N)=O)cc2)ncc2ccccc12 [Example 123, 4-({(4-methylisoquinolin-3-yl)[4-(trifluoromethoxy)benzyl]amino}sulfonyl)benzamide]  21 nM
28. Cn1ccc2c(Cl)cnc(N(Cc3ccc(OC(F)(F)F)cc3)S(=O)(=O)c3ccc(C(=O)O)cc3)c21 [Example 6, sodium 4-({(4-chloro-1-methyl-1H-pyrrolo[2,3-c]pyridin-7-yl)[4-(trifluoromethoxy)benzyl]amino}sulfonyl)benzoate]  22 nM
29. CC(O)c1c(N(Cc2ccc(OC(F)(F)F)cc2)S(=O)(=O)c2ccc(C(=O)O)cc2)ncc2ccccc12 (stereo not shown) [Example 113, 4-({[4-(1-hydroxyethyl)isoquinolin-3-yl][4-(trifluoromethoxy)benzyl]amino}sulfonyl)benzoic acid]  25 nM
30. Cc1c(N(Cc2ccc(-c3ccc(F)cc3)cc2)S(=O)(=O)c2ccc(C(=O)O)cc2)ncc2ccccc12 [Example 8, 4-{[[(4′-fluorobiphenyl-4-yl)methyl](4-methylisoquinolin-3-yl)amino]sulfonyl}benzoic acid]  26 nM
31. Cc1c(N(Cc2ccc(-c3ccccc3)cc2)S(=O)(=O)c2ccc(C(=O)O)cc2)ncc2ccccc12 [Example 27]  26 nM
32. Cc1c(N(Cc2ccc(OC(F)(F)F)cc2)S(=O)(=O)c2ccc(C(=O)O)cc2)nc(N2CCCC2)c2ccccc12 [Example 99, 4-({(4-methyl-1-pyrrolidin-1-ylisoquinolin-3-yl)[4-(trifluoromethoxy)benzyl]amino}sulfonyl)benzoic acid]  29 nM
33. Cc1c(N(Cc2ccc(OC3CC3)cc2)S(=O)(=O)c2ccc(C(=O)O)cc2)ncc2ccccc12 [Example 45]  35 nM
34. Cc1c(N(Cc2ccc(C(F)(F)F)cn2)S(=O)(=O)c2ccc(C(=O)O)cc2)ncc2ccccc12 [Example 66]  38 nM
35. Cc1c(N(Cc2ccc3cc[nH]c3c2)S(=O)(=O)c2ccc(C(=O)O)cc2)ncc2ccccc12 [Example 117, 4-{[(1H-indol-6-ylmethyl)(4-methylisoquinolin-3-yl)amino]sulfonyl}benzoic acid]  54 nM
36. Cc1c(N(Cc2ccc3c(Cl)cn(C)c3c2)S(=O)(=O)c2ccc(C(=O)O)cc2)ncc2ccccc12 [Example 122, 4-{[[(3-chloro-1-methyl-1H-indol-6-yl)methyl](4-methylisoquinolin-3-yl)amino]sulfonyl}benzoic acid]  57 nM
37. Cc1c(N(Cc2ccc3c(c2)OC(C)(C)C3)S(=O)(=O)c2ccc(C(=O)O)cc2)ncc2ccccc12 [Example 81]  58 nM
38. Cc1c(N(Cc2ccc(OC(F)(F)F)cc2)S(=O)(=O)c2ccc(C(C)(C)O)cc2)ncc2ccccc12 [Example 125, 4-(1-hydroxy-1-methylethyl)-N-(4-methylisoquinolin-3-yl)-N-[4-(trifluoromethoxy)benzyl]benzenesulfonamide]  62 nM
39. Cc1c(N(Cc2cccc3ccccc23)S(=O)(=O)c2ccc(C(=O)O)cc2)ncc2ccccc12 [Example 31]  65 nM
40. Cc1c(N(Cc2ccc(-c3ccccc3)cn2)S(=O)(=O)c2ccc(C(=O)O)cc2)ncc2ccccc12 [Example 67]  67 nM
41. Cc1c(N(CC2CCN(c3ccccc3)CC2)S(=O)(=O)c2ccc(C(=O)O)cc2)ncc2ccccc12 [Example 85]  79 nM
42. Cc1c(N(Cc2ccc3ccn(C)c3c2)S(=O)(=O)c2ccc(C(=O)O)cc2)ncc2ccccc12 [Example 119, 4-{[[(1-methyl-1H-indol-6-yl)methyl](4-methylisoquinolin-3-yl)amino]sulfonyl}benzoic acid]  92 nM
43. Cc1c(N(Cc2ccc(-c3ccccc3)nc2)S(=O)(=O)c2ccc(C(=O)O)cc2)ncc2ccccc12 [Example 70]  95 nM
44. Cc1c(N(Cc2ccc(OC(F)(F)F)cc2)S(=O)(=O)c2ccc(C(=O)O)cc2)nc(C(C)O)c2ccccc12 (stereo not shown) [Example 115, 4-({[1-(1-hydroxyethyl)-4-methylisoquinolin-3-yl][4-(trifluoromethoxy)benzyl]amino}sulfonyl)benzoic acid]  97 nM
45. O=C(O)c1ccc(S(=O)(=O)N(Cc2ccc(OC(F)(F)F)cc2)c2cc3c(Cl)cccc3cn2)cc1 [Example 102, 4-({(5-chloroisoquinolin-3-yl)[4-(trifluoromethoxy)benzyl]amino}sulfonyl)benzoic acid]  115 nM
46. Cc1c(N(Cc2nc3ccccc3o2)S(=O)(=O)c2ccc(C(=O)O)cc2)ncc2ccccc12 [Example 127]  195 nM
